pIC50: −log10 of the molar value. One block for each compound: values may come before it.
How the values were obtained:
C57BL/6 mice = assay: MTD studies in mice; format: in vivo
[1] = system: C57BL/6 mice with TNBS colitis; assay: TNBS colitis in C57BL/6 mice; format: in vivo; parameters: TNBS Efficacy / Clinical Score / Histological Score / Colon Length: key to the marks not given beside the values
Procedure: (§1) C57BL/6 mice (20-22 grams) were fed ad lib and assigned to 4 different groups (n=8/group). After a 72 hr acclimation period the test group groups received 25 mg/kg of test compound PO (gavage) in vehicle daily. A control group received vehicle alone. After 24 hrs, mice were weighed and TNBS was injected intra-colonically using 5 cm of polyethylene (¼ inch) tubing. Mice were then treated with the test compounds and weighed daily for 4 days. Mice were sacrificed on day 4 and clinical score was assessed. Intestinal tissue for and blood were also collected. Tissues were either flash frozen and kept in −80° C. for RNA and protein isolation or placed in 10% formalin solution for future histological analysis. Blood was spun at 5K rpm for 5 min and serum was collected and kept at −20° C. for multiplex cytokine analysis.

[2] = system: colon tissue gene expression; assay: Colon tissue gene expression (RNA-Seq) in TNBS-induced colitis mice; format: in vivo; conditions: for expression of genes related to inflammatory response: vs untreated
Procedure: as §1, with “Method: TNBS colitis: C57BL/6” for “C57BL/6”
RNA Sequencing: RNA was extracted from mouse colon tissue at Athos Therapeutics and was sent at Zymo Research or the Technology Center for Genomics & Bioinformatics at UCLA for sequencing and partial bioinformatics analysis.
Libraries for RNA-Seq were prepared with KAPA Stranded mRNA-Seq Kit. The workflow consists of mRNA enrichment and fragmentation, first strand cDNA synthesis using random priming, followed by second strand synthesis converting cDNA:RNA hybrid to double-stranded cDNA (dscDNA), and incorporates dUTP into the second cDNA strand. cDNA generation is followed by end repair to generate blunt ends, A-tailing, adaptor ligation, and PCR amplification. Different adaptors were used for multiplexing samples in one lane. Sequencing was performed on NovaSeq6000 (SP) for a PE 2×150 run. Data quality checking was done on Illumina SAV. Data de-multiplexing was performed with Illumina Bcl2fastq v 2.19.1.403 software. The reads were mapped by STAR 2.27a and read counts per gene were quantified using the mouse Ensembl Musmusculus.GRCm38.97 GTF file. In Partek Flow (Partek® Flow® software, v7.0 Copyright©. 2019 Partek Inc., St. Louis, Mo., USA) read counts were normalized by CPM +1.0E-4.
Gene differential expression analysis and downstream gene enrichment analysis was performed at Athos Therapeutics. The DESeq2 R package was used for differential expression analysis. DESeq2 FDR cutoff: 0.05, DESeq2 Log 2FC cutoff: 1 (FC cutoff: 2). Gene enrichment analysis was performed using the Enrichr) (https://maayanlab.cloud/Enrichr/enrich) and gprofiler (https://biit.cs.ut.ee/gprofiler/gost) platforms.

J82 = J82 bladder cancer cell viability (Real-Time-Glo); format: cell-based; conditions: Homo sapiens, 72 hr, read-out: IC50, Cell line: J82
Procedure: To determine the plating density for cell viability assays, for each cell line, cells were counted and diluted to final densities of 2.5, 5, 10 and 20 thousand per 100 μl of their respective growth media per well in 96 well plates. A Promega Real-Time-Glo cell viability kit was used to determine the optimal concentration for cell plating so that each cell line would be within the linear part of its growth curve after 72 hrs in culture. For the determination of test compound IC50s different cancer cell lines were plated in 96 well plates in the pre-determined optimal density for each cell line. Test compounds were then added at different concentrations for the creation of six-point curve and cell density was determined using the Promega Real-Time-Glo cell viability kit after 24, 48, and 72 hrs in culture. Test compound 72 hr IC50s were calculated using the AAT Bioquest IC50 calculator.

Structure (SMILES): COc1cc2c(NC3CCS(=O)(=O)CC3)nc(N3CCC(F)(F)CC3)nc2cc1OCCCN1CCCC1 [Compound 1, 4-((2-(4,4-difluoropiperidin-1-yl)-6-methoxy-7-(3-(pyrrolidin-1-yl)propoxy)quinazolin-4-yl)amino)tetrahydro-2H-thiopyran 1,1-dioxide]
effects in weight change (MTD studies) (C57BL/6 mice; mouse, in vivo, po): not cause any effects in weight change

Structure (SMILES): COc1cc2c(NC3CCOCC3)nc(N3CCC(F)(F)CC3)nc2cc1OCCCN1CCCC1 [Compound 2, 2-(4,4-difluoropiperidin-1-yl)-6-methoxy-7-(3-(pyrrolidin-1-yl)propoxy)-N-(tetrahydro-2H-pyran-4-yl)quinazolin-4-amine]
colitis associated damage in the intestine (in words) ([1]; 25 mg/kg PO daily): strong inhibitor of colitis associated damage in the intestine
Clinical Score ([1]; 25 mg/kg PO daily, day 4): ++
Colon Length ([1]; 25 mg/kg PO daily, day 4): ++
Histological Score ([1]; 25 mg/kg PO daily, day 4): ++
TNBS Efficacy ([1]; 25 mg/kg PO daily, day 4): ++
histological scores (in words) ([1]; vs vehicle treated controls): positive outcomes
expression of TNF [2]: significantly reduced expression
expression of infliximab marker genes [2]: significantly reduced expression
expression of pro-inflammatory cytokine and metalloproteinase pathway genes (22-gene signature) [2]: significantly reduced expression
number of inflammatory response genes with significantly reduced expression [2]: > 85 genes
Log2FC 1l6 ([2]; treated vs untreated): −4.82
Log2FC Ccl2 ([2]; treated vs untreated): −2.71
Log2FC Ccl3 ([2]; treated vs untreated): −7.36
Log2FC Ccl7 ([2]; treated vs untreated): −2.73
Log2FC Ccl9 ([2]; treated vs untreated): −1.15
Log2FC Csf3 ([2]; treated vs untreated): −6.66
Log2FC Csf3r ([2]; treated vs untreated): −3.19
Log2FC Cxcl1 ([2]; treated vs untreated): −6.03
Log2FC Cxcl2 ([2]; treated vs untreated): −8.30
Log2FC Cxcl3 ([2]; treated vs untreated): −10.19
Log2FC Cxcl5 ([2]; treated vs untreated): −6.57
Log2FC Il1a ([2]; treated vs untreated): −6.05
Log2FC Il1b ([2]; treated vs untreated): −6.17
Log2FC Il11 ([2]; treated vs untreated): −4.05
Log2FC Il13ra2 ([2]; treated vs untreated): −2.38
Log2FC Mmp3 ([2]; treated vs untreated): −4.47
Log2FC Osm ([2]; treated vs untreated): −4.67
Log2FC Osmr ([2]; treated vs untreated): −1.24
Log2FC Ptgs2 ([2]; treated vs untreated): −3.18
Log2FC Stc1 ([2]; treated vs untreated): −1.89
Log2FC Tnfrsf11b ([2]; treated vs untreated): −1.66
expression of genes related to inflammatory response [2]: significantly reduced expression levels

pIC50 (J82): 5.30 to 6.00
Structure (SMILES): COc1cc2c(Nc3ccncc3)nc(N3CCC(F)(F)CC3)nc2cc1OCCCN1CCCC1 [Compound 7, 2-(4,4-difluoropiperidin-1-yl)-6-methoxy-N-(pyridin-4-yl)-7-(3-(pyrrolidin-1-yl)propoxy)quinazolin-4-amine]

Structure (SMILES): COc1cc2c(NC3CCN(C(C)C)CC3)nc(N3CCC(F)(F)CC3)nc2cc1OCCCN1CCCC1 [Compound 400, 2-(4,4-difluoropiperidin-1-yl)-N-(1-isopropylpiperidin-4-yl)-6-methoxy-7-(3-(pyrrolidin-1-yl)propoxy)quinazolin-4-amine, reference compound]
pIC50 (J82): 5.00 to 5.30
effects in weight change (MTD studies) (C57BL/6 mice; 50 mg/kg daily oral): not cause any effects in weight change
expression of genes related to inflammatory response [2]: did not have any effect
